According to patent US10745382B2 (BRISTOL-MYERS SQUIBB COMPANY, priority 2015, dated 2020):

biological target: T1, PD-1/PD-L1 (Homo sapiens, UniProt Q9NZQ7); test: PD-1/PD-L1 Homogenous Time-Resolved Fluorescence (HTRF) binding assay; conditions: PD-L1-His 10 nM, PD-1-Ig 20 nM; value given as range class; read-out: Range or IC50
T1 construct: made in house; host or cells: HEK293T
Method in brief: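 Binding measured in dPBS with 0.1% BSA and 0.05% Tween-20, detected by HTRF with europium cryptate anti-Ig (1 nM final) and APC anti-His (20 nM final) added over the binding reaction. Counter-assays used human PD-1-Ig/PD-L2-His (20 and 5 nM) and CD80-His/PD-L1-Ig (100 and 10 nM).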

T1 sequence (Q9NZQ7 with tags, fused parts or gaps): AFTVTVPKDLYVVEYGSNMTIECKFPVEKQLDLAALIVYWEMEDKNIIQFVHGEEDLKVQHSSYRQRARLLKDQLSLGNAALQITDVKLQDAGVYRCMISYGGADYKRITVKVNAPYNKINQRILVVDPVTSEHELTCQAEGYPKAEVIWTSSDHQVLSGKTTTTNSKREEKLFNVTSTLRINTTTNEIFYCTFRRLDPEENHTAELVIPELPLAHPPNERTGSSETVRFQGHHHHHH

| IC50 [nM] | Compound |
| --- | --- |
| 10 to 100 | Cc1c(COc2cc(OCc3cncc(C#N)c3)c(CNC(CO)CO)cc2Cl)cccc1-c1cccc(C(=O)N(C)C)c1C [Example 4034, 3′-((2-chloro-5-((5-cyanopyridin-3-yl)methoxy)-4-(((1,3-dihydroxypropan-2-yl)amino)methyl)phenoxy)methyl)-N,N,2,2′-tetramethyl-[1,1′-biphenyl]-3-carboxamide] |
| 0.21 to 10 | Cc1c(COc2cc(OCc3cncc(S(C)(=O)=O)c3)c(CN[C@](C)(CO)C(=O)O)cc2Cl)cccc1-c1cccc(OCCCN2CCC(CO)(C(=O)O)C2)c1C (stereo partly drawn) [Example 1048, 1-(3-((3′-((4-((((R)-2-carboxy-1-hydroxypropan-2-yl)amino)methyl)-2-chloro-5-((5-(methylsulfonyl)pyridin-3-yl)methoxy)phenoxy)methyl)-2,2′-dimethyl-[1,1′-biphenyl]-3-yl)oxy)propyl)-3-(hydroxymethyl)pyrrolidine-3-carboxylic Acid] |
| 0.21 to 10 | Cc1c(CCCCN2CC[C@@H](O)C2)cccc1-c1cccc(COc2cc(OCc3cncc(C#N)c3)c(CN3CCCC[C@H]3C(=O)O)cc2Cl)c1C [Example 4061, (S)-1-(5-chloro-2-((5-cyanopyridin-3-yl)methoxy)-4-((3′-(4-((R)-3-hydroxypyrrolidin-1-yl)butyl)-2,2′-dimethyl-[1,1′-biphenyl]-3-yl)methoxy)benzyl)piperidine-2-carboxylic Acid] |
| 100 to 2000 | Cc1c(COc2cc(OCc3cncc(C#N)c3)c(CN3C[C@@H](O)C[C@H]3C(=O)O)cc2Cl)cccc1-c1cccc(C(=O)N(C)C)c1C [Example 4033, (2S,4S)-1-(5-chloro-2-((5-cyanopyridin-3-yl)methoxy)-4-((3′-(dimethylcarbamoyl)-2,2′-dimethyl-[1,1′-biphenyl]-3-yl)methoxy)benzyl)-4-hydroxypyrrolidine-2-carboxylic Acid] |
| 0.21 to 10 | Cc1c(COc2cc(OCc3cncc(C#N)c3)c(CN3CCCC[C@H]3C(=O)O)cc2Cl)cccc1-c1cccc(OCCCN2CCC[C@H](C(=O)O)C2)c1C [Example 2204, (2S)-1-(4-((3′-(3-((S)-3-carboxypiperidin-1-yl)propoxy)-2,2′-dimethylbiphenyl-3-yl)methoxy)-5-chloro-2-((5-cyanopyridin-3-yl)methoxy)benzyl)piperidine-2-carboxylic Acid] |
| 0.21 to 10 | Cc1c(COc2cc(OCc3cncc(S(C)(=O)=O)c3)c(CN3CCCC[C@H]3C(=O)O)cc2Cl)cccc1-c1ccc2c(c1)OC(CCN1CCC(O)(CC(=O)O)C1)CO2 (mixture of isomers) [Example 1508, (2S)-1-(4-((3-(3-(2-(3-(carboxymethyl)-3-hydroxypyrrolidin-1-yl)ethyl)-2,3-dihydrobenzo[b][1,4]dioxin-6-yl)-2-methylbenzyl)oxy)-5-chloro-2-((5-(methylsulfonyl)pyridin-3-yl)methoxy)benzyl)piperidine-2-carboxylic acid] |
| 0.21 to 10 | C[C@](CO)(NCc1cc(Cl)c(OCc2cccc(-c3cccc(OCCCN4C[C@@H](O)[C@H](O)C4)c3Cl)c2Cl)cc1OCc1cncc(C#N)c1)C(=O)O [Example 2078, (R)-2-((5-chloro-2-((5-cyanopyridin-3-yl)methoxy)-4-((2,2′-dichloro-3′-(3-((3R,4R)-3,4-dihydroxypyrrolidin-1-yl)propoxy)-[1,1′-biphenyl]-3-yl)methoxy)benzyl)amino)-3-hydroxy-2-methylpropanoic Acid] |
| 0.21 to 10 | Cc1c(COc2cc(OCc3cncc(C#N)c3)c(CN[C@](C)(CO)C(=O)O)cc2Cl)cccc1-c1cccc(OCCCN[C@](C)(CO)C(=O)O)c1Cl [Example 2023, (R)-2-((3-((3′-((4-((((R)-2-carboxy-1-hydroxypropan-2-yl)amino)methyl)-2-chloro-5-((5-cyanopyridin-3-yl)methoxy)phenoxy)methyl)-2-chloro-2′-methyl-[1,1′-biphenyl]-3-yl)oxy)propyl)amino)-3-hydroxy-2-methylpropanoic Acid] |
| 0.21 to 10 | Cc1c(COc2cc(OCc3cncc(C(N)=O)c3)c(CNC[C@H](O)CO)cc2Cl)cccc1-c1cccc(OCCCO)c1Cl [Example 2117, (S)-5-((4-chloro-5-((2′-chloro-3′-(3-hydroxypropoxy)-2-methyl-[1,1′-biphenyl]-3-yl)methoxy)-2-(((2,3-dihydroxypropyl)amino)methyl)phenoxy)methyl)nicotinamide] |
| 0.21 to 10 | CC(=O)N[C@H]1CCN(CCCOc2cccc(-c3cccc(COc4cc(OCc5cncc(C#N)c5)c(CNC(CO)CO)cc4Cl)c3C)c2Cl)C1 [Example 2069, (S)—N-(1-(3-((2-chloro-3′-((2-chloro-5-((5-cyanopyridin-3-yl)methoxy)-4-(((1,3-dihydroxypropan-2-yl)amino)methyl)phenoxy)methyl)-2′-methyl-[1,1′-biphenyl]-3-yl)oxy)propyl)pyrrolidin-3-yl)acetamide] |
| 0.21 to 10 | Cc1c(COc2cc(OCc3cncc(C#N)c3)c(CN3CCCC[C@H]3C(=O)O)cc2Cl)cccc1-c1cccc(OCCCN2CC(N(C)C)C2)c1C [Example 2232, (2S)-1-(5-chloro-2-((5-cyanopyridin-3-yl)methoxy)-4-((3′-(3-(3-(dimethylamino)azetidin-1-yl)propoxy)-2,2′-dimethylbiphenyl-3-yl)methoxy)benzyl)piperidine-2-carboxylic Acid] |
| 0.21 to 10 | CNC(=O)C1CCN(CCCOc2cccc(-c3cccc(COc4cc(OCc5cncc(C#N)c5)c(CN[C@](C)(CO)C(=O)O)cc4Cl)c3C)c2Cl)CC1 [Example 1076, (R)-2-((5-chloro-4-((2′-chloro-2-methyl-3′-(3-(4-(methylcarbamoyl)piperidin-1-yl)propoxy)-[1,1′-biphenyl]-3-yl)methoxy)-2-((5-cyanopyridin-3-yl)methoxy)benzyl)amino)-3-hydroxy-2-methylpropanoic Acid] |
| 0.21 to 10 | Cc1c(COc2cc(OCc3cncc(C#N)c3)c(C(=O)NCCO)cc2Cl)cccc1-c1cccc(OCCCN2CC[C@@H](O)C2)c1C [Example 2379, (R)-5-chloro-2-((5-cyanopyridin-3-yl)methoxy)-N-(2-hydroxyethyl)-4-((3′-(3-(3-hydroxypyrrolidin-1-yl)propoxy)-2,2′-dimethyl-[1,1′-biphenyl]-3-yl)methoxy)benzamide] |
| 0.21 to 10 | Cc1c(OCCCN2CC[C@@H](O)C2)cccc1-c1cccc(COc2cc(OCc3cncc(C#N)c3)c(CN[C@](C)(CO)C(=O)O)cc2Cl)c1Cl [Example 3017, (R)-2-((5-chloro-4-((2-chloro-3′-(3-((R)-3-hydroxypyrrolidin-1-yl)propoxy)-2′-methyl-[1,1′-biphenyl]-3-yl)methoxy)-2-((5-cyanopyridin-3-yl)methoxy)benzyl)amino)-3-hydroxy-2-methylpropanoic Acid] |
| 0.21 to 10 | Cc1c(COc2cc(OCc3cncc(S(C)(=O)=O)c3)c(CN3CCCC[C@H]3C(=O)O)cc2Cl)cccc1-c1cccc(OCCCN2CC[C@H](O)C2)c1C [Example 1090, (S)-1-(5-chloro-4-((3′-(3-((S)-3-hydroxypyrrolidin-1-yl)propoxy)-2,2′-dimethyl-[1,1′-biphenyl]-3-yl)methoxy)-2-((5-(methylsulfonyl)pyridin-3-yl)methoxy)benzyl)piperidine-2-carboxylic Acid] |
| 0.21 to 10 | Cc1c(COc2cc(OCc3cncc(C#N)c3)c(CN3CCCC[C@H]3C(=O)O)cc2Cl)cccc1-c1ccc2c(c1C)OCCO2 [Example 3044, (2S)-1-(5-chloro-2-((5-cyanopyridin-3-yl)methoxy)-4-((2-methyl-3-(5-methyl-2,3-dihydrobenzo[b][1,4]dioxin-6-yl)benzyl)oxy)benzyl)piperidine-2-carboxylic Acid] |
| 0.21 to 10 | Cc1cc(OCc2cccc(-c3cccc(OCCCN4CC[C@@H](O)C4)c3C)c2C)cc(OCc2cncc(C#N)c2)c1CNC(C)(CO)CO [Example 4088, (R)-5-((2-(((1,3-dihydroxy-2-methylpropan-2-yl)amino)methyl)-5-((3′-(3-(3-hydroxypyrrolidin-1-yl)propoxy)-2,2′-dimethyl-[1,1′-biphenyl]-3-yl)methoxy)-3-methylphenoxy)methyl)nicotinonitrile] |
| 0.21 to 10 | Cc1c(COc2cc(OCc3cncc(C#N)c3)c(CN3CCCC[C@H]3C(=O)O)cc2Cl)cccc1-c1cccc(OCCCN2CCC(C(=O)O)CC2)c1C [Example 2364, (S)-1-(4-((3′-(3-(4-carboxypiperidin-1-yl)propoxy)-2,2′-dimethyl-[1,1′-biphenyl]-3-yl)methoxy)-5-chloro-2-((5-cyanopyridin-3-yl)methoxy)benzyl)piperidine-2-carboxylic Acid] |
| 0.21 to 10 | Cc1c(COc2cc(OCc3cncc(C#N)c3)c(CNC(C)(CO)CO)cc2Cl)cccc1-c1cccc(OCC(CO)(CO)CO)c1Cl [Example 2085, 5-((4-chloro-5-((2′-chloro-3′-(3-hydroxy-2,2-bis(hydroxymethyl)propoxy)-2-methyl-[1,1′-biphenyl]-3-yl)methoxy)-2-(((1,3-dihydroxy-2-methylpropan-2-yl)amino)methyl)phenoxy)methyl)nicotinonitrile] |
| 0.21 to 10 | C=CCOc1cc(OCc2cccc(-c3cccc(OCCCN4CC[C@@H](O)C4)c3C)c2Cl)c(Cl)cc1CNC(CO)CO [Example 2313, (R)-2-((2-(allyloxy)-5-chloro-4-((2-chloro-3′-(3-(3-hydroxypyrrolidin-1-yl)propoxy)-2′-methyl-[1,1′-biphenyl]-3-yl)methoxy)benzyl)amino)propane-1,3-diol] |
| 10 to 100 | Cc1c(COc2cc(O)c(CO)cc2Cl)cccc1-c1cccc(OCCCN2CC(N(C)C)C2)c1Cl [Example 2014, 4-chloro-5-((2′-chloro-3′-(3-(3-(dimethylamino)azetidin-1-yl)propoxy)-2-methyl-[1,1′-biphenyl]-3-yl)methoxy)-2-(hydroxymethyl)phenol] |
